ChEMBL document CHEMBL1126278, “New neplanocin analogues. 1. Synthesis of 6'-modified neplanocin A derivatives as broad-spectrum antiviral agents” (J Med Chem, 1992)
≈ marks a conversion by molar mass, not a printed value.

Tests used:
[1] = tested on: HeLa; assay: Inhibitory effect on replication of RNA virus coxsB-4 in HeLa cell line.; format: functional, cell-based; conditions: Homo sapiens
[2] = tested on: HEL; assay: Inhibitory effect on replication of DNA virus TK-VZV (YSR) on HEL cell line.; format: functional, cell-based; conditions: Homo sapiens
[3] = tested on: Vero; assay: Inhibitory effect on replication of RNA virus SFV in Vero cell line; format: functional, cell-based; conditions: Chlorocebus sabaeus
[4] = tested on: MT4; assay: Inhibitory effect on replication of RNA virus cell growth in MT-4 cell line.; format: functional, cell-based; conditions: Homo sapiens
[5] = tested on: HEL; assay: Inhibitory effect on replication of DNA virus CMV (AD-169) on HEL cell line.; format: functional, cell-based; conditions: Homo sapiens
[6] = tested on: HEL; assay: Inhibitory effect on replication of DNA virus CMV (Davis) on HEL cell line.; format: functional, cell-based; conditions: Homo sapiens
[7] = tested on: HEL; assay: Inhibitory effect on replication of DNA virus VZV (Oka) on HEL cell line.; format: functional, cell-based; conditions: Homo sapiens
[8] = tested on: PRK; assay: Inhibitory effect on replication of RNA virus VSV in PRK cell line.; format: functional, cell-based; conditions: Oryctolagus cuniculus
[9] = tested on: HeLa; assay: Inhibitory effect on replication of RNA virus VSV in HeLa cell line.; format: functional, cell-based; conditions: Homo sapiens
[10] = tested on: Vero; assay: Inhibitory effect on replication of RNA virus PV-3 in Vero cell line.; format: functional, cell-based; conditions: Chlorocebus sabaeus
[11] = tested on: HEL; assay: Inhibitory effect on replication of DNA virus VZV (YS) on HEL cell line.; format: functional, cell-based; conditions: Homo sapiens
[12] = tested on: MDCK; assay: cells; conditions: Canis lupus familiaris
[13] = tested on: MDCK; assay: Inhibitory effect on replication of RNA virus cell morphology in MDCK cell line.; format: functional, cell-based; conditions: Canis lupus familiaris
[14] = tested on: Vero; assay: Inhibitory effect on replication of RNA virus reo-1 in Vero cell line.; format: functional, cell-based; conditions: Chlorocebus sabaeus
[15] = Inhibitory effect on replication of DNA virus HSV-1 (KOS) in PRK cell line.; format: functional, cell-based; conditions: Oryctolagus cuniculus
[16] = tested on: PRK; assay: Inhibitory effect on replication of RNA virus cell morphology in PRK cell line.; format: functional, cell-based; conditions: Oryctolagus cuniculus
[17] = tested on: HeLa; assay: Inhibitory effect on replication of RNA virus RSV in HeLa cell line; format: functional, cell-based; conditions: Homo sapiens
[18] = tested on: HEL; assay: Inhibitory effect on replication of DNA virus TK-VZV (07-1) on HEL cell line.; format: functional, cell-based; conditions: Homo sapiens
[19] = tested on: Vero; assay: Inhibitory effect on replication of RNA virus SV in Vero cell line.; format: functional, cell-based; conditions: Chlorocebus sabaeus
[20] = tested on: MT4; assay: Inhibitory effect on replication of RNA virus HIV-2 in MT-4 cell line.; format: functional, cell-based; conditions: Homo sapiens
[21] = tested on: MDCK; assay: cells; conditions: Canis lupus familiaris; remark: listed apart in the source
[22] = tested on: Vero; assay: Inhibitory effect on replication of RNA virus JV in Vero cell line.; format: functional, cell-based; conditions: Chlorocebus sabaeus
[23] = tested on: MT4; assay: Inhibitory effect on replication of RNA virus HIV-1 in MT-4 cell line.; format: functional, cell-based; conditions: Homo sapiens
[24] = Inhibitory effect on replication of DNA virus HSV-2 (G) in PRK cell line.; format: functional, cell-based; conditions: Oryctolagus cuniculus
[25] = tested on: Vero; assay: Inhibitory effect on replication of RNA virus protein synthesis in Vero cell line.; format: functional, cell-based; conditions: Chlorocebus sabaeus
[26] = tested on: Vero; assay: Inhibitory effect on replication of RNA virus measles on Vero cell line.; format: functional, cell-based; conditions: Chlorocebus sabaeus
[27] = tested on: HeLa; assay: cells; conditions: Homo sapiens
[28] = tested on: Vero; assay: Inhibitory effect on replication of RNA virus coxsB-4 in Vero cell line; format: functional, cell-based; conditions: Chlorocebus sabaeus
[29] = tested on: HeLa; assay: Inhibitory effect on replication of RNA virus cell morphology in HeLa cell line.; format: functional, cell-based; conditions: Homo sapiens
[30] = tested on: Vero; assay: Inhibitory effect on replication of RNA virus RNA synthesis in Vero cell line.; format: functional, cell-based; conditions: Chlorocebus sabaeus
[31] = tested on: PRK; assay: Inhibitory effect on replication of DNA virus VV on PRK cell line.; format: functional, cell-based; conditions: Oryctolagus cuniculus
[32] = tested on: PRK; assay: Inhibitory effect on replication of DNA virus Cell morphology on PRK cell line; format: functional, cell-based; conditions: Oryctolagus cuniculus
[33] = tested on: Vero; assay: Inhibitory effect on replication of RNA virus TV in Vero cell line.; format: functional, cell-based; conditions: Chlorocebus sabaeus
[34] = tested on: Vero; assay: (§1) Inhibitory effect on replication of RNA virus cell morphology in Vero cell line.; format: functional, cell-based; conditions: Chlorocebus sabaeus
[35] = tested on: HEL; assay: Inhibitory effect on replication of DNA virus Cell growth on HEL cell line.; format: functional, cell-based; conditions: Homo sapiens
[36] = tested on: PRK; assay: Inhibitory effect on replication of virus Cell morphology on PRK cell line; format: functional, cell-based; conditions: Oryctolagus cuniculus
[37] = tested on: Vero; assay: as §1; format: functional, cell-based, Homo sapiens; conditions: Chlorocebus sabaeus

Row | SMILES | IC50 [1] | IC50 [2] | IC50 [3] | IC50 [4] | IC50 [5] | IC50 [6] | IC50 [7] | IC50 [8] | IC50 [9] | IC50 [10] | IC50 [11] | IC50 [12] | IC50 [13] | IC50 [14] | IC50 [15] | IC50 [16] | IC50 [17] | IC50 [18] | IC50 [19] | IC50 [20] | other results
1 | Nc1ncnc2c1ncn2[C@@H]1C=C(CF)[C@@H](O)[C@H]1O | > 200 µg/mL | 20 µg/mL (≈ 75.4 µM) | 200 µg/mL (≈ 754 µM) | 3 µg/mL (≈ 11.3 µM) | 2.5 µg/mL (≈ 9.43 µM) | 2.5 µg/mL (≈ 9.43 µM) | 70 µg/mL (≈ 264 µM) | 0.2 µg/mL (≈ 0.754 µM) | 2 µg/mL (≈ 7.54 µM) | 7 µg/mL (≈ 26.4 µM) | 150 µg/mL (≈ 566 µM) | > 100 µg/mL | > 100 µg/mL | 2 µg/mL (≈ 7.54 µM) | > 400 µg/mL | > 400 µg/mL | 10 µg/mL (≈ 37.7 µM) | 20 µg/mL (≈ 75.4 µM) | 7 µg/mL (≈ 26.4 µM) | > 1.5 µg/mL | IC50 [21]: > 100 µg/mL; IC50 [22]: 0.4 µg/mL (≈ 1.51 µM); IC50 [23]: > 1.5 µg/mL; IC50 [24]: > 400 µg/mL; IC50 [25]: 65 µg/mL (≈ 245 µM); IC50 [26]: 10 µg/mL (≈ 37.7 µM); IC50 [27]: > 200 µg/mL; IC50 [28]: > 200 µg/mL; IC50 [29]: > 200 µg/mL; IC50 [30]: 5 µg/mL (≈ 18.9 µM); IC50 [31]: 2 µg/mL (≈ 7.54 µM); IC50 [32]: > 400 µg/mL; IC50 [33]: 0.4 µg/mL (≈ 1.51 µM); IC50 [34]: 40 µg/mL (≈ 151 µM)
2 | CSCC1=C[C@@H](n2cnc3c(N)ncnc32)[C@H](O)[C@@H]1O | > 200 µg/mL | 5 µg/mL (≈ 17 µM) | > 400 µg/mL | 60 µg/mL (≈ 205 µM) | 1.5 µg/mL (≈ 5.11 µM) | 1 µg/mL (≈ 3.41 µM) | 2.5 µg/mL (≈ 8.52 µM) | 70 µg/mL (≈ 239 µM) | > 200 µg/mL | > 200 µg/mL | 2 µg/mL (≈ 6.82 µM) | > 100 µg/mL | > 100 µg/mL | 40 µg/mL (≈ 136 µM) | > 400 µg/mL | > 400 µg/mL | > 40 µg/mL | 2 µg/mL (≈ 6.82 µM) | > 200 µg/mL | > 40 µg/mL | IC50 [35]: 9 µg/mL (≈ 30.7 µM); IC50 [21]: > 100 µg/mL; IC50 [22]: 40 µg/mL (≈ 136 µM); IC50 [36]: > 400 µg/mL; IC50 [23]: > 40 µg/mL; IC50 [24]: > 400 µg/mL; IC50 [37]: > 400 µg/mL; IC50 [26]: 40 µg/mL (≈ 136 µM); IC50 [27]: > 200 µg/mL; IC50 [28]: > 200 µg/mL; IC50 [29]: > 400 µg/mL; IC50 [31]: 70 µg/mL (≈ 239 µM); IC50 [33]: 40 µg/mL (≈ 136 µM)
